From US8569302B2, “Inhibitors of flaviviridae viruses” (Gilead Sciences, Inc., priority 2009, dated 2013)

tested on: human hepatoma Huh-7 cell line harboring a HCV replicon; assay: HCV replicon assay (inhibition of viral replication, luciferase readout); assay type: cell-based; details: Hepatitis C virus, 72 h, Huh-7 HCV replicon cells, 3 days incubation
Procedure, shortened: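 Huh-7 replicon cells were exposed to 10-point 3-fold compound dilutions (0.44% DMSO) for 3 days at 37 °C. Replicon replication was read by Dual-Glo luciferase, with background from protease-inhibitor wells subtracted, and viability by calcein AM. EC50/CC50 came from a Hill-equation fit versus DMSO controls.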

Q: For `Cc1nc(S(=O)(=O)N2CCC(N(c3cc(C#CC(C)(C)C)sc3C(=O)O)C(=O)[C@H]3CC[C@H](C)CC3)CC2)cn1C` [Compound 206, 5-(3,3-Dimethyl-but-1-ynyl)-3-[[1-(1,2-dimethyl-1H-imidazole-4-sulfonyl)-piperidin-4-yl]-(4-methyl-cyclohexanecarbonyl)-amino]-thiophene-2-carboxylic acid], which inhibition at 2 µM is on record?
A: 100%

Q: How did the inhibition at 2 µM turn out when `CC(C)(C)C#Cc1cc(N(C(=O)[C@H]2CC[C@H](C)CC2)C2CCN(S(=O)(=O)c3cccs3)CC2)c(C(=O)O)s1` [Compound 207, 5-(3,3-Dimethyl-but-1-ynyl)-3-{(4-methyl-cyclohexanecarbonyl)-[1-(thiophene-2-sulfonyl)-piperidin-4-yl]-amino}-thiophene-2-carboxylic acid] was run?
A: 99.8%

Q: With `CC(C)(C)C#Cc1cc(N(C(=O)[C@H]2CC[C@H](C)CC2)C2CCN(S(=O)(=O)c3cnc(=O)[nH]c3)CC2)c(C(=O)O)s1` [Compound 208, 5-(3,3-Dimethyl-but-1-ynyl)-3-{(4-methyl-cyclohexanecarbonyl)-[1-(2-oxo-1,2-dihydro-pyrimidine-5-sulfonyl)-piperidin-4-yl]-amino}-thiophene-2-carboxylic acid] as the compound, how does the inhibition at 2 µM read?
A: 63.8%

Q: `CC(C)(C)C#Cc1cc(N(C(=O)[C@H]2CC[C@H](C)CC2)C2CCN(S(=O)(=O)c3ccccn3)CC2)c(C(=O)O)s1` [Compound 209, 5-(3,3-Dimethyl-but-1-ynyl)-3-{(4-methyl-cyclohexanecarbonyl)-[1-(pyridine-2-sulfonyl)-piperidin-4-yl]-amino}-thiophene-2-carboxylic acid] was tested. Which inhibition at 2 µM did it give?
A: 100%

Q: For `CC(C)(C)C#Cc1cc(N(C(=O)[C@H]2CC[C@H](C)CC2)C2CCN(S(=O)(=O)c3cccnc3)CC2)c(C(=O)O)s1` [Compound 210, 5-(3,3-Dimethyl-but-1-ynyl)-3-{(4-methyl-cyclohexanecarbonyl)-[1-(pyridine-3-sulfonyl)-piperidin-4-yl]-amino}-thiophene-2-carboxylic acid], which inhibition at 2 µM is on record?
A: 100%

Q: How did the inhibition at 2 µM turn out when `CC(C)(C)C#Cc1cc(N(C(=O)[C@H]2CC[C@H](C)CC2)[C@H]2CCN(S(=O)(=O)c3ccsc3)C2)c(C(=O)O)s1` [Compound 211, 5-(3,3-Dimethyl-but-1-ynyl)-3-{(4-methyl-cyclohexanecarbonyl)-[1-(thiophene-3-sulfonyl)-pyrrolidin-3-yl]-amino}-thiophene-2-carboxylic acid] was run?
A: 99.7%

Q: Which inhibition at 2 µM does the source give for `Cc1nc(S(=O)(=O)N2CC[C@H](N(c3cc(C#CC(C)(C)C)sc3C(=O)O)C(=O)[C@H]3CC[C@H](C)CC3)C2)cn1C` [Compound 212, 5-(3,3-Dimethyl-but-1-ynyl)-3-[[1-(1,2-dimethyl-1H-imidazole-4-sulfonyl)-pyrrolidin-3-yl]-(4-methyl-cyclohexanecarbonyl)-amino]-thiophene-2-carboxylic acid] here?
A: 99.3%

Q: How did the inhibition at 2 µM turn out when `CC(C)(C)C#Cc1cc(N(C(=O)[C@H]2CC[C@H](C)CC2)[C@H]2CCN(S(=O)(=O)c3cccs3)C2)c(C(=O)O)s1` [Compound 213, 5-(3,3-Dimethyl-but-1-ynyl)-3-{(4-methyl-cyclohexanecarbonyl)-[1-(thiophene-2-sulfonyl)-pyrrolidin-3-yl]-amino}-thiophene-2-carboxylic acid] was run?
A: 99.9%

Q: How did the inhibition at 2 µM turn out when `CC(C)(C)C#Cc1cc(N(C(=O)[C@H]2CC[C@H](C)CC2)[C@H]2CCN(S(=O)(=O)c3cnc(=O)[nH]c3)C2)c(C(=O)O)s1` [Compound 214, 5-(3,3-Dimethyl-but-1-ynyl)-3-{(4-methyl-cyclohexanecarbonyl)-[1-(2-oxo-1,2-dihydro-pyrimidine-5-sulfonyl)-pyrrolidin-3-yl]-amino}-thiophene-2-carboxylic acid] was run?
A: 69.9%

Q: How did the inhibition at 2 µM turn out when `CC(C)(C)C#Cc1cc(N(C(=O)[C@H]2CC[C@H](C)CC2)[C@H]2CCN(S(=O)(=O)c3ccccn3)C2)c(C(=O)O)s1` [Compound 215, 5-(3,3-Dimethyl-but-1-ynyl)-3-{(4-methyl-cyclohexanecarbonyl)-[1-(pyridine-2-sulfonyl)-pyrrolidin-3-yl]-amino}-thiophene-2-carboxylic acid] was run?
A: 100%

Q: With `CC(C)(C)C#Cc1cc(N(C(=O)[C@H]2CC[C@H](C)CC2)[C@H]2CCN(S(=O)(=O)c3cccnc3)C2)c(C(=O)O)s1` [Compound 216, 5-(3,3-Dimethyl-but-1-ynyl)-3-{(4-methyl-cyclohexanecarbonyl)-[1-(pyridine-3-sulfonyl)-pyrrolidin-3-yl]-amino}-thiophene-2-carboxylic acid] as the compound, how does the inhibition at 2 µM read?
A: 100%

Q: For `CC(C)(C)C#Cc1cc(N(C(=O)[C@H]2CC[C@H](C)CC2)[C@H]2CC[C@@H](OC3CCOCC3)CC2)c(C(=O)O)s1` [Compound 219, 5-(3,3-dimethylbut-1-ynyl)-3-((1r,4R)-4-methyl-N-((1r,4R)-4-(tetrahydro-2H-pyran-4-yloxy)cyclohexyl)cyclohexanecarboxamido)thiophene-2-carboxylic acid], which inhibition at 2 µM is on record?
A: 100%

Q: With `CC(C)(C)C#Cc1cc(N(C(=O)[C@H]2CC[C@H](C)CC2)C2CCC(O[C@@H]3CO[C@H]4OCC[C@H]43)CC2)c(C(=O)O)s1` (stereo partly drawn) [Compound 221, 5-(3,3-dimethylbut-1-ynyl)-3-((1r,4R)-4-methyl-N-(4-((3S,3aS,6aR)-tetrahydro-2H-furo[2,3-b]furan-3-yloxy)cyclohexyl)cyclohexanecarboxamido)thiophene-2-carboxylic acid] as the compound, how does the inhibition at 2 µM read?
A: 100%

Q: How did the inhibition at 2 µM turn out when `CC(C)(C)C#Cc1cc(N(C(=O)[C@H]2CC[C@H](C)CC2)[C@H]2CC[C@H](OC3CCN(C(=O)OC(C)(C)C)CC3)CC2)c(C(=O)O)s1` [Compound 222, 3-(N-(4-(1-(tert-butoxycarbonyl)piperidin-4-yloxy)cyclohexyl)-4-methylcyclohexanecarboxamido)-5-(3,3-dimethylbut-1-ynyl)thiophene-2-carboxylic acid] was run?
A: 97.7%

Q: Which inhibition at 2 µM does the source give for `CC(C)(C)C#Cc1cc(N(C(=O)[C@H]2CC[C@H](C)CC2)[C@H]2CC[C@H](OC3CCNCC3)CC2)c(C(=O)O)s1` [Compound 223, 5-(3,3-dimethylbut-1-ynyl)-3-(4-methyl-N-(4-(piperidin-4-yloxy)cyclohexyl)cyclohexanecarboxamido)thiophene-2-carboxylic acid] here?
A: 100%

Q: Which inhibition at 2 µM does the source give for `CC(C)(C)C#Cc1cc(N(C(=O)[C@H]2CC[C@H](C)CC2)[C@H]2CC[C@H](OC3CCOC3)CC2)c(C(=O)O)s1` (some centres unmarked) [Compound 224, 5-(3,3-dimethylbut-1-ynyl)-3-(4-methyl-N-(4-(tetrahydrofuran-3-yloxy)cyclohexyl)cyclohexanecarboxamido)thiophene-2-carboxylic acid] here?
A: 99.9%

Q: How did the inhibition at 2 µM turn out when `CC(C)(C)C#Cc1cc(N(C(=O)[C@H]2CC[C@H](C)CC2)[C@H]2CC[C@H](O[C@H]3CCN(C(=O)OC(C)(C)C)C3)CC2)c(C(=O)O)s1` [Compound 225] was run?
A: 98.4%

Q: How did the inhibition at 2 µM turn out when `CC(C)(C)C#Cc1cc(N(C(=O)[C@H]2CC[C@H](C)CC2)[C@H]2CC[C@H](O[C@H]3CCNC3)CC2)c(C(=O)O)s1` [Compound 226, 5-(3,3-dimethylbut-1-ynyl)-3-(4-methyl-N-(4-((S)-pyrrolidin-3-yloxy)cyclohexyl)cyclohexanecarboxamido)thiophene-2-carboxylic acid] was run?
A: 99.9%

Q: For `C[C@@H]1CC[C@@H](C(=O)N(c2cc(C#CC(C)(C)C)sc2C(=O)O)[C@H]2CC[C@H](OC3CCOC3)CC2)[C@@H](O)C1` (some centres unmarked) [Compound 227], which inhibition at 2 µM is on record?
A: 100%

Q: Which inhibition at 2 µM does the source give for `C[C@H]1CC[C@H](C(=O)N(c2cc(C#CC3CC3)sc2C(=O)O)[C@H]2CC[C@H](Oc3ccccn3)CC2)CC1` [Compound 229, 5-(2-cyclopropylethynyl)-3-(4-methyl-N-(4-(pyridin-2-yloxy)cyclohexyl)cyclohexanecarboxamido)thiophene-2-carboxylic acid] here?
A: 82.6%

Q: How did the inhibition at 2 µM turn out when `CC(C)(C)C#Cc1cc(N(C(=O)[C@H]2CC[C@H](C)CC2)[C@H]2CC[C@H](O[C@@H]3CCN(C(=O)OC(C)(C)C)C3)CC2)c(C(=O)O)s1` [Compound 230, 3-(N-(4-((R)-1-(tert-butoxycarbonyl)pyrrolidin-3-yloxy)cyclohexyl)-4-methylcyclohexanecarboxamido)-5-(3,3-dimethylbut-1-ynyl)thiophene-2-carboxylic acid] was run?
A: 98.4%

Q: Which inhibition at 2 µM does the source give for `CC(C)(C)C#Cc1cc(N(C(=O)[C@H]2CC[C@H](C)CC2)[C@H]2CC[C@H](O[C@@H]3CCNC3)CC2)c(C(=O)O)s1` [Compound 231, 5-(3,3-dimethylbut-1-ynyl)-3-(4-methyl-N-(4-((R)-pyrrolidin-3-yloxy)cyclohexyl)cyclohexanecarboxamido)thiophene-2-carboxylic acid] here?
A: 99.9%

Q: `CC1=CCC(C(=O)N(c2cc(C#CC(C)(C)C)sc2C(=O)O)[C@H]2CC[C@H](O[C@H]3CCOC3)CC2)[C@@H](C)C1` (stereo partly drawn) [Compound 301, 5-(3,3-dimethyl-but-1-ynyl)-3-{(4,6S-dimethyl-cyclohex-3-enecarbonyl)-[4-(tetrahydro-furan-3S-yloxy)-trans-cyclohexyl]-amino}-thiophene-2-carboxylic acid] was tested. Which inhibition at 2 µM did it give?
A: 99.8%

Q: For `CC1=CCC(C(=O)N(c2cc(C#CC(C)(C)C)sc2C(=O)O)[C@H]2CC[C@H](O[C@H]3CCOC3)CC2)[C@H](C)C1` (stereo partly drawn) [Compound 304, 5-(3,3-dimethyl-but-1-ynyl)-3-{(4,6R-dimethyl-cyclohex-3-enecarbonyl)-[4-(tetrahydro-furan-3S-yloxy)-trans-cyclohexyl]-amino}-thiophene-2-carboxylic acid], which inhibition at 2 µM is on record?
A: 100%

Q: `C[C@@H]1CC[C@@H](C(=O)N(c2cc(C#CC(C)(C)C)sc2C(=O)O)[C@H]2CC[C@H](O[C@H]3CCOC3)CC2)[C@@H](O)C1` [Compound 309, 5-(3,3-dimethylbut-1-ynyl)-3-((1R,2S,4R)-2-hydroxy-4-methyl-N-(4-(tetrahydrofuran-3S-yloxy)cyclohexyl)cyclohexanecarboxamido)thiophene-2-carboxylic acid] was tested. Which inhibition at 2 µM did it give?
A: 100%

Q: Which inhibition at 2 µM does the source give for `C[C@@H]1CC[C@@H](C(=O)N(c2cc(C#CC(C)(C)C)sc2C(=O)O)[C@H]2CC[C@H](O[C@@H]3CCOC3)CC2)[C@@H](O)C1` [Compound 310, 5-(3,3-dimethylbut-1-ynyl)-3-((1R,2S,4R)-2-hydroxy-4-methyl-N-(4-(tetrahydrofuran-3R-yloxy)cyclohexyl)cyclohexanecarboxamido)thiophene-2-carboxylic acid] here?
A: 100%
